In assay [1] the test system is human adenosine receptors (all subtypes). To be noted: cited from earlier work.
Assay [2] deals with rat A3 adenosine receptor. To be noted: reported in literature; cited from earlier work.
In assay [3] the target is T1, human A3 adenosine receptor (Homo sapiens, UniProt P0DMS8).
T1 construct: clone HS-21a contained the complete open reading frame corresponding to the human homolog of the rat A3 adenosine receptor; expressed in transfected cells; host or cells: CHO cells, stably transfected (pCMV5-A3; pSVL and pREP vectors are also described)
T1 sequence (P0DMS8 1-318): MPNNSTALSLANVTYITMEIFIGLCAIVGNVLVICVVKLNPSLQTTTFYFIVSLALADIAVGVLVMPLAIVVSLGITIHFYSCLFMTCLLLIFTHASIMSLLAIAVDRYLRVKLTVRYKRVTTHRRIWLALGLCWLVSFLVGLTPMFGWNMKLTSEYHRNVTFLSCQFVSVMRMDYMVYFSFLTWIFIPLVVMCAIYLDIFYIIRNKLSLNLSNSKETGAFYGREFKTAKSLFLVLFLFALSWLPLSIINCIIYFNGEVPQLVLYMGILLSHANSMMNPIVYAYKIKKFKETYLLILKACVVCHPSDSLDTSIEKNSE
The experiment in a line: Saturation binding of 125I-ABA to membranes of CHO cells stably expressing HS-21a (human A3 adenosine receptor). To be noted: for prevention of specific binding of 125I-ABA: 1 mM nonradioactive I-ABA (so in the source) or 400 μM NECA.

Assay [4] deals with T1, human A3 adenosine receptor. Kind of assay: Inhibition of forskolin-stimulated cAMP accumulation, CHO cells stably expressing HS-21a (human A3 adenosine receptor). It is filed as cell-based. How it is done:
(§1) Determinations were made on stably transfected CHO cells in suspension as described (Linden et al., (1993) Mol. Pharm. 44:524-532). Supernatants (500 μL) were acetylated and acetylcyclic AMP was measured by automated radioimmunoassay (Hamilton, B. R. and Smith, D. O. (1991) J. Physiol. (Lond.) 432, 327-341). Antagonist dissociation constants were estimated from pA2 values as described by Schild (1957) Pharm. Rev. 9, 242-246).
(§2) The ability of the HS-21a receptor stably expressed in CHO cells to couple to the cAMP regulatory system was measured using adenosine as an agonist. […] In the absence of forskolin, adenosine had no effect on the cAMP levels. In non-transfected CHO cells, adenosine had no effect on cAMP levels when measured with or without forskolin treatment.

Assay [5] has as its system sheep A3 adenosine receptor. To be noted: CHO cells; cited from earlier work.
For assay [6], the target named is sheep A3 adenosine receptor. The settings on record: cited from earlier work.
Assay [7] has as its target T1, human A3 adenosine receptor. The experiment in a line: Competition binding vs 125I-ABA, membranes of CHO cells stably expressing HS-21a (human A3 adenosine receptor). How it is done:
Pellets were resuspended in 5 mM Hepes, pH 7.4/5 mM MgCl2 /0.1 mM benzamidine/0.1 mM PMSF at a protein concentration of 1-2 mg/mL and were incubated with adenosine deaminase (Boehringer Mannheim), 2 U/mL at 37° C. for 20 minutes. […] The assay was terminated by rapid filtration and three washes with ice-cold binding buffer on a Skatron harvester equipped with a receptor binding filtermat (Skatron Instruments, INC). […] Nonspecific binding was measured in the presence of 1 μM I-ABA. […] Binding data were analyzed and competition curves were constructed by use of the nonlinear regression curve fitting program Graph PAD InPlot, Version 3.0 (Graph Pad Software, San Diego).

For assay [8], the system named is cytokine activated eosinophils. The experiment in a line: Treatment of cytokine activated eosinophils (hypersensitivity to adenosine, degranulation, effector function). It is filed as cell-based.
Assay [9] addresses T1, human A3 adenosine receptor. The settings on record: antagonist potency in cAMP assay; disclosed by Salvatore et al.; cited from earlier work.
Assay [10] can be described thus: Radioligand binding to membranes from CHO cells (non-transfected / non-specific).
For the next assay, the system named is asthmatics. The settings on record: cited from earlier work; for bronchoconstriction in asthmatics: not nonasthmatics.
The next assay has as its system eosinophils. Kind of assay: Induction of eosinophil activation in animals. To be noted: in vivo.
In the next assay the test system is activated mast cells. To be noted: cited from earlier work.
In assay [11] the test system is non-transfected CHO cells. Kind of assay: cAMP levels in non-transfected CHO cells. Format: cell-based. The settings on record: with or without forskolin. Here is the method:
as §1, §2

Assay [12] relates to A2b adenosine receptor transcript, human eosinophils. The experiment in a line: A2b adenosine receptor transcript expression (RT-PCR) in GM-CSF stimulated eosinophils. It is filed as cell-based. To be noted: GM-CSF (150 pM, 16 hours). How it is done:
(§3) Eosinophils and neutrophils (80-99% purity) were purified from human peripheral blood by an immunomagnetic procedure described by Hansel et al. (1991) J. Immunol. Methods 145: 105-110. Isolated cells (2-2.6×10^6 cells/mL) were cultured in the presence of 150 pM human recombinant granulocyte-macrophage colony stimulating factor, GM-CSF (Calbiochem, San Diego, Calif.) for 16 hours in RPMI with 10% fetal calf serum, at 37° C. in 5% CO2. Total RNA was extracted by the guanidinium isothiocyanate method (Chirgwin, J. M., et al, (1979) Biochemistry 18:5294-5299) from approximately 1.3×10^7 human eosinophils (+) or (-) GM-CSF stimulation. […]
(§4) Human adenosine receptor subtype transcript expression was determined using the polymerase chain reaction (PCR). […]
(§5) Ten μl of each PCR amplification reaction was elecrophoresed on a 1.4% agarose gel and alkaline blotted to Zeta-Probe GT membranes according to the manufacturer's protocol (BIO-RAD, Hercules, Calif.). […] The presence of A2a, A2b and A3 receptor PCR products were detected from normal and GM-CSF treated eosinophils.
(§6) PCR reaction products were quantitated using a Molecular Dynamics Phosphorimager and ImageQuant software. […] Quantitation of GAPDH was used to correct message level differences in the (+) or (-) GM-CSF stimulated human eosinophils. […]

The test system of assay [13] is A2a adenosine receptor transcript, human eosinophils. The experiment in a line: A2a adenosine receptor transcript expression (RT-PCR) in GM-CSF stimulated eosinophils. Format: cell-based. How it is done: as §3, §4, §5, §6
Assay [14] has as its system A1 adenosine receptor transcript, human eosinophils. Kind of assay: A1 adenosine receptor transcript expression (RT-PCR) in GM-CSF stimulated eosinophils. Format: cell-based. How it is done:
as §3, §4, §5, §6

Assay [15] concerns A3 adenosine receptor transcript, human eosinophils. Kind of assay: A3 adenosine receptor transcript expression (RT-PCR) in GM-CSF stimulated eosinophils. It is filed as cell-based. The settings on record: GM-CSF (150 pM, 16 hours). Here is the method:
as §3, §4, §5, §6

The mark [16] stands for this setting: 125I-ABA, HS-21a stable CHO cell membranes.

These results are taken from US5646156A, “Inhibition of eosinophil activation through A3 adenosine receptor antagonism” (Merck & Co., Inc., priority 1994, dated 1997).

“And” between values parts separate entries of the source, which are not always exact repeats. Identical values can stand only once. “Also recorded” adds a separate entry of the source. Like-named read-outs stand apart in the source and are kept apart here.

Turning to `CCCn1c(=O)c2[nH]c(C3CCCC3)nc2n(CCC)c1=O` [DPCPX, 1,3-dipropyl-8-cyclopentylxanthine], the “blockade of human adenosine receptor subtypes” value in [1] is “blocked”. Also, the “binding to rat A3 receptor” value in assay [2] is recorded as “not to bind”.

On to `Nc1nc2c(ncn2[C@@H]2O[C@H](COP(=O)(O)OP(=O)(O)OP(O)(O)=S)[C@@H](O)[C@H]2O)c(=O)[nH]1` [GTPγS, guanosine 5'-O-3-thiotriphosphate], for which the inhibition at 10 µM in assay [3] (read-out: reduction of specific binding of 125I-ABA) was found to be 56%.

With `Nc1ccc(CNc2ncnc3c2ncn3[C@@H]2O[C@H](CO)[C@@H](O)[C@H]2O)cc1I` [I-ABA], the “inhibition of forskolin-stimulated cyclic AMP accumulation compared with NECA and other agonists (PIA and CPA)” value in assay [4] (CHO cells, human A3) is given as “only about half as much inhibition”. The “agonist type for lowering cyclic AMP” value was “partial agonist” in [4] (CHO cells, human receptor) and “full” in [5]. For the same compound, the “shift of NECA dose response curve to lower cyclic AMP” value in assay [4] (NECA in presence of I-ABA) is reported as “fight-shifted”. Also, the “prevention of specific binding of 125I-ABA” value in assay [3] is “prevented”.

On to `CCCn1c(=O)c2[nH]c(-c3ccc(OCC(=O)O)cc3)nc2n(Cc2ccc(N)c(I)c2)c1=O` [I-ABOPX, 3-(3-iodo-4-aminobenzyl)-8-(4-oxyacetate)phenyl-1-propylxanthine], for which the Ki in [6] is 0.002 µM; in assay [7] (competition with 125I-ABA, CHO membranes, human A3), 0.018 µM. Also, the “affinity for human A3 receptor” value in assay [7] (in words) is reported as “highest affinity antagonist yet reported for A3 adenosine receptors”. In addition, in [8], the “hypersensitivity to adenosine, eosinophil degranulation and effector function” value was “blockade of this hypersensitivity and inhibition of eosinophil degranulation and effector function”. Moreover, the “cAMP pKi” value in assay [9] is given as 8.13.

Take `CCNC(=O)[C@H]1O[C@@H](n2cnc3c(N)ncnc32)[C@H](O)[C@@H]1O` [NECA, N-ethylcarboxamidoadenosine]: in [3], the “prevention of specific binding of 125I-ABA” value is recorded as “prevented”.

In the case of `CCCn1c(=O)c2[nH]c(-c3ccc(OCC(=O)NCCN)cc3)nc2n(CCC)c1=O` [XAC, xanthine amine cogener], in assay [1], the “blockade of human adenosine receptor subtypes” value is reported as “blocked”. Besides, the “binding to rat A3 receptor” value in assay [2] is on record as “not to bind”.

For `Nc1ccc(CNc2ncnc3c2ncn3[C@@H]2O[C@H](CO)[C@@H](O)[C@H]2O)cc1[125I]` [^125 I-ABA, N^6-(4-amino-3-^125 iodobenzyl)adenosine], in [10] (125I-ABA), the “specific binding to non-transfected CHO cell membranes” value is on record as “No specific binding”. In assay [3] (setting [16]), this compound returned a Bmax of 258 fmol/mg protein and a Hill coefficient of 0.99. In addition, in assay [3] (125I-ABA, HS-21a stable CHO cell membranes, read-out: dissociation constant), the Kd turned out to be 0.01 µM.

For the compound `Nc1ccc(CCNc2ncnc3c2ncn3[C@@H]2O[C@H](CO)[C@@H](O)[C@H]2O)cc1[125I]` [^125 I-APNEA, N^6-2-(4-amino-3-^125 iodophenyl)ethyladenosine], the “non-specific binding to CHO cell membranes” value in assay [10] (125I-APNEA, preliminary experiments) is “high non-specific”.

With `Nc1ncnc2c1ncn2[C@@H]1O[C@H](CO)[C@@H](O)[C@H]1O` [adenosine], the bronchoconstriction in asthmatics result in the assay on asthmatics (listed as Adenosine) is “induces bronchoconstriction in asthmatics but not in normal individuals; also recorded: produces bronchoconstriction in asthmatics but not in nonasthmatics”; with asthmatics it was “produces bronchoconstriction”. In addition, the inhibition at 10 µM in assay [4] (CHO, read-out: inhibition of forskolin-stimulated increase in cAMP) is 30%. Also, in [4] (HS-21a CHO cells, no forskolin), the “effect on cAMP levels in absence of forskolin” value is given as “no effect”. The “eosinophil activation in animals” value in the assay on eosinophils is reported as “induce eosinophil activation”. Moreover, the “release of histamine from activated mast cells” value with activated mast cells is “potentiate”. Moreover, the “effect on cAMP levels in non-transfected CHO cells” value in [11] is “no effect”.

In the case of `Cn1c(=O)c2[nH]cnc2n(C)c1=O` [theophylline], the “antagonism of adenosine-induced bronchoconstriction” value with asthmatics was “antagonized”.

In the case of “GM-CSF: human recombinant granulocyte-macrophage colony stimulating factor, GM-CSF (Calbiochem, San Diego, Calif.)”, in assay [12], the “up-regulation of A2b transcripts” value was ~3 fold and 3 to 4 fold. In addition, in assay [13], the “A2a transcript / message level change” value is given as “no change; also recorded: remained unchanged”. Also, the A1 transcript expression entry in [14] was “no A1 products were observed; also recorded: remained unchanged”. Besides, the “up-regulation of A3 transcripts” value in assay [15] was ~10 fold.
